The values below come from the supplement of paper PMC8967900.
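Also: ALL cell lines in 384-well plates, five doses spanning 10,000-fold, each plate scaled between vehicle and 100 µmol/L benzalkonium chloride controls, sDSS an adapted area-under-curve metric.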

One experiment has as its system NALM-16. Briefly: selective drug sensitivity score (sDSS, relative to normal bone marrow) (sDSS (score)); higher = more potent and effective on the cell line relative to normal bone marrow cells. The conditions noted are these: 72 h.
For `COc1cc(CCc2cc(NC(=O)c3ccc(N4CC(C)NC(C)C4)cc3)n[nH]2)cc(OC)c1` (stereo not given) [AZD4547] (top concentration 1000 nM), the “selective drug sensitivity score” value was determined as 0.56.

Regarding `CN(C)C(=O)c1ccc(S(=O)(=O)c2ccc(NC(=O)[C@@](C)(O)C(F)(F)F)c(Cl)c2)cc1` [AZD7545] (top concentration 10000 nM), the “selective drug sensitivity score” value was 0.3.

On to `COc1cc(C)c(/C=C/C(C)=C/C=C/C(C)=C/C(=O)O)c(C)c1C` [Acitretin] (top concentration 10000 nM), for which the “selective drug sensitivity score” value is -1.6.

Consider `CCC1(c2ccc(N)cc2)CCC(=O)NC1=O` (stereo not given) [Aminoglutethimide] (top concentration 10000 nM), for which the “selective drug sensitivity score” value was 0.

For `CNC(=O)c1ccc(N2C(=S)N(c3cnc(C#N)c(C(F)(F)F)c3)C(=O)C23CCC3)cc1F` [Apalutamide] (top concentration 10000 nM), the “selective drug sensitivity score” value stood at 0.

As for `N#CC1(c2ccc(NC(=O)c3cccnc3NCc3ccncc3)cc2)CCCC1` [Apatinib] (top concentration 10000 nM), the “selective drug sensitivity score” value is 0.

With `Cc1nc2cccc(N)c2c(=O)n1C1CCC(=O)NC1=O` (stereo not given) [Avadomide (CC122)] (top concentration 10000 nM), the “selective drug sensitivity score” value was determined as 0.

`Nc1nc(Nc2ccc3c(c2)CC[C@@H](N2CCCC2)CC3)nn1-c1cc2c(nn1)-c1ccccc1CCC2` [BGB324] (top concentration 10000 nM): the “selective drug sensitivity score” value is -1.58.

As for `CC1(C)C(C(=O)Nc2ccc(S(=O)(=O)c3ccc(NC(=O)C4C(C)(C)C4(C)C)cc3)cc2)C1(C)C` [BRD7116] (top concentration 10000 nM), the “selective drug sensitivity score” value was determined as 1.06.

The next experiment deals with NALM-6. Described as above. As to conditions: 72 h.
With `CNC(=O)c1ccc(C)c(-n2c(C)cc(OCc3ccc(F)cc3F)c(Br)c2=O)c1` (top concentration 1000 nM), the “selective drug sensitivity score” value amounted to 0.1.

`CONC(=O)c1ccccc1Nc1cc(Nc2cc(C)nn2C(C)C)ncc1Cl` (top concentration 1000 nM): the “selective drug sensitivity score” value was 0.56.

With `CCOc1ccn(-c2ccc(F)cc2)c(=O)c1C(=O)Nc1ccc(Oc2ccnc(N)c2Cl)c(F)c1` (top concentration 2500 nM), the “selective drug sensitivity score” value came to 2.

Regarding `CC[C@@H]1[C@H](F)C(=O)N[C@@H]1COc1nccc2cc(C(N)=O)c(OC)cc12` (top concentration 10000 nM), the “selective drug sensitivity score” value came out at 4.48.

Regarding `C[C@H]1C[C@@H](n2c(Nc3ccc(OC(F)(F)F)cc3)nc3cc(CCC(=O)O)ccc32)CC(C)(C)C1` (top concentration 10000 nM), the “selective drug sensitivity score” value is 0.16.

Take `O=C(NCc1ccncc1)C12CC3CC(C1)CC(c1ccc(Cl)cc1)(C3)C2` (top concentration 50000 nM): the “selective drug sensitivity score” value was -0.22.

With `O=C(O)c1ccc(CN2CCC(CN[C@@H]3C[C@H]3c3ccccc3)CC2)cc1` (top concentration 100000 nM), the “selective drug sensitivity score” value is -0.62.

Consider `COc1cc(N2CCN(C)CC2)ccc1Nc1nccc(-c2cn(C)c3cnccc23)n1` [AZ191] (top concentration 10000 nM), for which the “selective drug sensitivity score” value was -1.72.

Consider `Cc1cc(Nc2nc(N[C@@H](C)c3ncc(F)cn3)ncc2Cl)[nH]n1` [AZD1480] (top concentration 1000 nM), for which the “selective drug sensitivity score” value was -3.58.

`COc1cc(CCc2cc(NC(=O)c3ccc(N4CC(C)NC(C)C4)cc3)n[nH]2)cc(OC)c1` (stereo not given) [AZD4547] (top concentration 1000 nM): the “selective drug sensitivity score” value is -0.14.

`CN(C)C(=O)c1ccc(S(=O)(=O)c2ccc(NC(=O)[C@@](C)(O)C(F)(F)F)c(Cl)c2)cc1` [AZD7545] (top concentration 10000 nM): the “selective drug sensitivity score” value came out at 3.7.

As for `COc1cc(C)c(/C=C/C(C)=C/C=C/C(C)=C/C(=O)O)c(C)c1C` [Acitretin] (top concentration 10000 nM), the “selective drug sensitivity score” value was -1.5.

In the case of `CCC1(c2ccc(N)cc2)CCC(=O)NC1=O` (stereo not given) [Aminoglutethimide] (top concentration 10000 nM), the “selective drug sensitivity score” value stood at 0.

For `CNC(=O)c1ccc(N2C(=S)N(c3cnc(C#N)c(C(F)(F)F)c3)C(=O)C23CCC3)cc1F` [Apalutamide] (top concentration 10000 nM), the “selective drug sensitivity score” value worked out at 0.

For the compound `N#CC1(c2ccc(NC(=O)c3cccnc3NCc3ccncc3)cc2)CCCC1` [Apatinib] (top concentration 10000 nM), the “selective drug sensitivity score” value is 0.4.

Consider `Cc1nc2cccc(N)c2c(=O)n1C1CCC(=O)NC1=O` (stereo not given) [Avadomide (CC122)] (top concentration 10000 nM), for which the “selective drug sensitivity score” value amounted to 0.

For the compound `Nc1nc(Nc2ccc3c(c2)CC[C@@H](N2CCCC2)CC3)nn1-c1cc2c(nn1)-c1ccccc1CCC2` [BGB324] (top concentration 10000 nM), the “selective drug sensitivity score” value amounted to 1.92.

As for `CC1(C)C(C(=O)Nc2ccc(S(=O)(=O)c3ccc(NC(=O)C4C(C)(C)C4(C)C)cc3)cc2)C1(C)C` [BRD7116] (top concentration 10000 nM), the “selective drug sensitivity score” value was found to be 1.96.

The next experiment concerns P30-OHKUBO. The experiment is described as above. The conditions noted are these: 72 h.
Regarding `CNC(=O)c1ccc(C)c(-n2c(C)cc(OCc3ccc(F)cc3F)c(Br)c2=O)c1` (top concentration 1000 nM), the “selective drug sensitivity score” value turned out to be 4.5.

`CONC(=O)c1ccccc1Nc1cc(Nc2cc(C)nn2C(C)C)ncc1Cl` (top concentration 1000 nM): the “selective drug sensitivity score” value is -0.94.

Regarding `CCOc1ccn(-c2ccc(F)cc2)c(=O)c1C(=O)Nc1ccc(Oc2ccnc(N)c2Cl)c(F)c1` (top concentration 2500 nM), the “selective drug sensitivity score” value is 1.5.

For the compound `CC[C@@H]1[C@H](F)C(=O)N[C@@H]1COc1nccc2cc(C(N)=O)c(OC)cc12` (top concentration 10000 nM), the “selective drug sensitivity score” value was 2.38.

On to `C[C@H]1C[C@@H](n2c(Nc3ccc(OC(F)(F)F)cc3)nc3cc(CCC(=O)O)ccc32)CC(C)(C)C1` (top concentration 10000 nM), for which the “selective drug sensitivity score” value is -0.14.

As to `O=C(NCc1ccncc1)C12CC3CC(C1)CC(c1ccc(Cl)cc1)(C3)C2` (top concentration 50000 nM), the “selective drug sensitivity score” value turned out to be 3.18.

Consider `O=C(O)c1ccc(CN2CCC(CN[C@@H]3C[C@H]3c3ccccc3)CC2)cc1` (top concentration 100000 nM), for which the “selective drug sensitivity score” value is -0.62.

For `COc1cc(N2CCN(C)CC2)ccc1Nc1nccc(-c2cn(C)c3cnccc23)n1` [AZ191] (top concentration 10000 nM), the “selective drug sensitivity score” value was -0.72.

Turning to `Cc1cc(Nc2nc(N[C@@H](C)c3ncc(F)cn3)ncc2Cl)[nH]n1` [AZD1480] (top concentration 1000 nM), the “selective drug sensitivity score” value is -4.18.

On to `COc1cc(CCc2cc(NC(=O)c3ccc(N4CC(C)NC(C)C4)cc3)n[nH]2)cc(OC)c1` (stereo not given) [AZD4547] (top concentration 1000 nM), for which the “selective drug sensitivity score” value was -0.14.

Consider `CN(C)C(=O)c1ccc(S(=O)(=O)c2ccc(NC(=O)[C@@](C)(O)C(F)(F)F)c(Cl)c2)cc1` [AZD7545] (top concentration 10000 nM), for which the “selective drug sensitivity score” value worked out at 0.6.

In the case of `COc1cc(C)c(/C=C/C(C)=C/C=C/C(C)=C/C(=O)O)c(C)c1C` [Acitretin] (top concentration 10000 nM), the “selective drug sensitivity score” value was -1.6.

Regarding `CCC1(c2ccc(N)cc2)CCC(=O)NC1=O` (stereo not given) [Aminoglutethimide] (top concentration 10000 nM), the “selective drug sensitivity score” value stood at 0.

Turning to `CNC(=O)c1ccc(N2C(=S)N(c3cnc(C#N)c(C(F)(F)F)c3)C(=O)C23CCC3)cc1F` [Apalutamide] (top concentration 10000 nM), the “selective drug sensitivity score” value is 0.

Take `N#CC1(c2ccc(NC(=O)c3cccnc3NCc3ccncc3)cc2)CCCC1` [Apatinib] (top concentration 10000 nM): the “selective drug sensitivity score” value amounted to 0.

For `Cc1nc2cccc(N)c2c(=O)n1C1CCC(=O)NC1=O` (stereo not given) [Avadomide (CC122)] (top concentration 10000 nM), the “selective drug sensitivity score” value stood at 5.9.

Take `Nc1nc(Nc2ccc3c(c2)CC[C@@H](N2CCCC2)CC3)nn1-c1cc2c(nn1)-c1ccccc1CCC2` [BGB324] (top concentration 10000 nM): the “selective drug sensitivity score” value is 5.82.

Take `CC1(C)C(C(=O)Nc2ccc(S(=O)(=O)c3ccc(NC(=O)C4C(C)(C)C4(C)C)cc3)cc2)C1(C)C` [BRD7116] (top concentration 10000 nM): the “selective drug sensitivity score” value came to 4.46.
